SMILES strings stand for the structures.

Data on nine compounds can be found in US8859535B2, “Hydroxy substituted isoquinolinone derivatives” (Novartis AG, priority 2011, dated 2014).

For assay [1], the target named is T1, human MDM2 protein (amino acids 2-188) (Homo sapiens, UniProt Q00987).
T1 construct: human MDM2 protein (amino acids 2-188); made in house
As to the kind of experiment: p53-MDM2 TR-FRET assay (p53-MDM2 Assay 1). Conditions: 1.25 nM MDM2-biotinylated, 10 nM Cy5-p53 peptide; read-out: IC50 (μM) of p53-Hdm2 inhibition (TR-FRET) Assay 1. It counts as binding. Summed up:
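Peptide displacement read as 665/620 nm TR-FRET ratio (excitation 340 nm) after 15 min room temperature with 10 nM Cy5-p53 aa18-26, following 15 min preincubation of Eu-streptavidin (0.625 nM) with biotinylated MDM4 aa 2-185 (2.5 nM) or MDM2 aa 2-188 (1.25 nM); IC50 curve-fitted. MDM2 Assay 2: MDM2 and Eu-streptavidin each 0.1 nM.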
On the technique in general: In TR-FRET formats the signal depends on donor and acceptor labels being close together.

Assay [2] concerns the target T2, human MDM4 protein (amino acids 2-185) (Homo sapiens, UniProt O15151).
T2 construct: human MDM4 protein (amino acids 2-185); made in house
T2 sequence (O15151 2-185): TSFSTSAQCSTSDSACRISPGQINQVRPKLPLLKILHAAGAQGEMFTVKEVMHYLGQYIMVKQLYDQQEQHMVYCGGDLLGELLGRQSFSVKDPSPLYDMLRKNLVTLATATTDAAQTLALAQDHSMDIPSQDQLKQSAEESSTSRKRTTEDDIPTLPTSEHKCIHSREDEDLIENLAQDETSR
Briefly: p53-MDM4 TR-FRET assay (p53-MDM4 Assay 1). Type of assay: binding. Conditions: 2.5 nM MDM4-biotinylated, 10 nM Cy5-p53 peptide; read-out: IC50 (μM) of p53-Hdm4 inhibition (TR-FRET) Assay 1. Here is the method: Time Resolved Fluorescence Energy Transfer (TR-FRET) Assay
The inhibition of p53-MDM2 and p53-MDM4 interactions is measured by time resolved fluorescence energy transfer (TR-FRET). Fluorescence energy transfer (or Foerster resonance energy transfer) describes an energy transfer between donor and acceptor fluorescent molecules. For this assay, human MDM2 protein (amino acids 2-188) and human MDM4 protein (amino acids 2-185), tagged with a C-terminal biotin moiety, are used in combination with a Europium labeled streptavidin (Perkin Elmer, Inc., Waltham, Mass., USA) serving as the donor fluorophore. The p53 derived, Cy5 labeled peptide Cy5-TFSDLWKLL (p53 aa18-26) is the energy acceptor. Upon excitation of the donor molecule at 340 nm, binding interaction between MDM2 or MDM4 and the p53 peptide induces energy transfer and enhanced response at the acceptor emission wavelength at 665 nm. Disruption of the formation of the p53-MDM2 or p53-MDM4 complex due to an inhibitor molecule binding to the p53 binding site of MDM2 or MDM4 results in increased donor emission at 620 nm. The ratiometric FRET assay readout is calculated from the raw data of the two distinct fluorescence signals measured in time resolved mode (fluorescence 665 nm/fluorescence 620 nm×1000).
After addition of 1.25 nM MDM2-biotinylated or 2.5 nM MDM4-biotinylated (internal preparations), and 0.625 nM Europium labeled streptavidin (Perkin Elmer), the solution is pre-incubated for 15 minutes at room temperature, then 10 nM Cy5-p53 peptide (internal preparation) is added before an incubation at room temperature for 15 minutes prior to reading the plate. For measurement of samples, a Victor II microplate reader (Perkin Elmer) is used with the following settings: Excitation 340 nm, Emission Donor 620 nm and Emission Acceptor 665 nm. IC50 values are calculated by curve fitting using XLfit. If not specified, reagents are purchased from Sigma-Aldrich Chemie GmBH, Buchs, Switzerland.
This assay was used to evaluate compounds displaying inhibition of p53-MDM2 interaction and p53-MDM4 interaction at IC50s of 0.005 to 50 μM (p53-MDM2 Assay 1 and p53-MDM4 Assay 1, respectively). For selected compounds displaying IC50s between […] on MDM2, a slightly modified assay is used with the following adaptations: 0.1 nM MDM2, 0.1 nM Europium labeled streptavidin and Tecan genios Pro is used as a microplate reader for the fluorescence measurements (p53-MDM2 Assay 2).

T1 sequence (Q00987 2-188): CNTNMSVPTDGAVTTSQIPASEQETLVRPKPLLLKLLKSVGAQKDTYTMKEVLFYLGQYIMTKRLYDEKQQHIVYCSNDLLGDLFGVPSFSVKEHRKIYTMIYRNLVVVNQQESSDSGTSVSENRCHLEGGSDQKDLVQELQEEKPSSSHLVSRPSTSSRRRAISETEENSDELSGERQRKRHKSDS

In the case of `COc1cc2c(cc1OC(C)C)[C@H](c1ccc(Cl)cc1)N(c1ccc(C3(O)CN(C(=O)OC(C)(C)C)C3)cc1)C(=O)C2` [Example 55, 3-{4-[(S)-1-(4-Chloro-phenyl)-7-isopropoxy-6-methoxy-3-oxo-3,4-dihydro-1H-isoquinolin-2-yl]-phenyl}-3-hydroxy-azetidine-1-carboxylic acid tert-butyl ester], the values for the IC50 in assay [1] and in assay [2] were 0.0926 µM and 26.3 µM, respectively.
For `COc1cccc(C(O)c2ccc(N3C(=O)Cc4cc(OC)c(OC(C)C)cc4[C@@H]3c3ccc(Cl)cc3)cc2)c1` (stereo partly drawn) [Example 2, (S)-1-(4-Chloro-phenyl)-2-{4-[hydroxy-(3-methoxy-phenyl)-methyl]-phenyl}-7-isopropoxy-6-methoxy-1,4-dihydro-2H-isoquinolin-3-one] the same measures were 0.0868 µM and 87 µM.
In the same order, the values of `COc1ccc(C(C)(O)c2ccc(N3C(=O)Cc4cc(OC)c(OC(C)C)cc4[C@@H]3c3ccc(Cl)cc3)cc2)cn1` (stereo partly drawn) [Example 23, (S)-1-(4-Chloro-phenyl)-2-{4-[1-hydroxy-1-(6-methoxy-pyridin-3-yl)-ethyl]-phenyl}-7-isopropoxy-6-methoxy-1,4-dihydro-2H-isoquinolin-3-one] are 0.0159 µM and 24.7 µM.
With `CCN1CCC(N2CC(C(C)(O)c3ccc(N4C(=O)Cc5cc(OC)c(OC(C)C)cc5[C@@H]4c4ccc(Cl)cc4)cc3)C2)CC1` (stereo partly drawn) [Example 100, (S)-1-(4-Chloro-phenyl)-2-(4-{1-[1-(1-ethyl-piperidin-4-yl)-azetidin-3-yl]-1-hydroxy-ethyl}-phenyl)-7-isopropoxy-6-methoxy-1,4-dihydro-2H-isoquinolin-3-one], the IC50 in assay [1] was found to be 0.0082 µM; in assay [2], 9.66 µM.
For `COc1cc2c(cc1OC(C)C)[C@H](c1ccc(Cl)cc1)N(c1ccc(C(C)(O)C3CC4CCC(C3)N4C(C)C)cc1)C(=O)C2` (stereo partly drawn) [Example 110, (S)-1-(4-Chloro-phenyl)-2-{4-[1-hydroxy-1-(8-isopropyl-8-aza-bicyclo[3.2.1]oct-3-yl)-ethyl]-phenyl}-7-isopropoxy-6-methoxy-1,4-dihydro-2H-isoquinolin-3-one] the same measures were 0.0049 µM and 4.23 µM.
For `COc1cc2c(cc1OC(C)C)[C@H](c1ccc(Cl)cc1)N(c1ccc([C@](C)(O)c3ccc(NC(C)=O)cc3)cc1)C(=O)C2` [Example 27, N-[4-((R)-1-{4-[(S)-1-(4-Chloro-phenyl)-7-isopropoxy-6-methoxy-3-oxo-3,4-dihydro-1H-isoquinolin-2-yl]-phenyl}-1-hydroxy-ethyl)-phenyl]-acetamide] the same measures were 0.0458 µM and 36.3 µM.
For the compound `COc1cc2c(cc1OC(C)C)[C@H](c1ccc(Cl)cc1)N(c1ccc(C(C)(O)c3cccnc3)cn1)C(=O)C2` (stereo partly drawn) [Example 15, (S)-1-(4-Chloro-phenyl)-2-[5-(1-hydroxy-1-pyridin-3-yl-ethyl)-pyridin-2-yl]-7-isopropoxy-6-methoxy-1,4-dihydro-2H-isoquinolin-3-one], the IC50 is 0.0404 µM in assay [1] and 61.1 µM in assay [2].
For `COc1cc2c(cc1OC(C)C)[C@H](c1ccc(Cl)cc1)N(c1ccc(C(O)C3CCOCC3)cc1)C(=O)C2` (stereo partly drawn) [Example 40, (S)-1-(4-Chloro-phenyl)-2-{4-[hydroxy-(tetrahydro-pyran-4-yl)-methyl]-phenyl}-7-isopropoxy-6-methoxy-1,4-dihydro-2H-isoquinolin-3-one] the same measures were 0.0328 µM and 31.6 µM.
For `COc1cc2c(cc1OC(C)C)[C@H](c1ccc(Cl)cc1)N(c1ccc(C(C)(O)c3cn(C)cn3)cc1)C(=O)C2` (stereo partly drawn) [Example 13, (S)-1-(4-Chloro-phenyl)-2-{4-[1-hydroxy-1-(1-methyl-1H-imidazol-4-yl)-ethyl]-phenyl}-7-isopropoxy-6-methoxy-1,4-dihydro-2H-isoquinolin-3-one] the same measures were 0.0608 µM and 82.7 µM.

One may read the IC50 as the point on the concentration scale where inhibition reaches its midpoint.
